According to article PMC4979471 (Cell Death Discovery, 2015):
Read-outs that look alike come from different tables or passages of the source.

What was measured:
Test in all cases: Kinase selectivity, P33-radiolabeled assay
Assay type in all cases: biochemical
Conditions in all cases: 10 μM ATP
MAPKAPK2 = biological target: T1, MAPKAPK2 (Homo sapiens, UniProt P49137)
T1 construct: purchased Reaction Biology Corp
Procedure, shortened: (§1)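 Each enzyme was exposed to 10 μM compound, with duplicate measurements, in reactions containing 10 μM ATP. Numbers are remaining activity as a percent of the vehicle (DMSO) signal.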

c-MET = biological target: T2, c-MET (Homo sapiens, UniProt P08581)
T2 construct: purchased Reaction Biology Corp
Procedure, shortened: as §1

EPHB1 = biological target: T3, EPHB1 (Homo sapiens, UniProt P54762)
T3 construct: purchased Reaction Biology Corp
T3 sequence (P54762 18-984): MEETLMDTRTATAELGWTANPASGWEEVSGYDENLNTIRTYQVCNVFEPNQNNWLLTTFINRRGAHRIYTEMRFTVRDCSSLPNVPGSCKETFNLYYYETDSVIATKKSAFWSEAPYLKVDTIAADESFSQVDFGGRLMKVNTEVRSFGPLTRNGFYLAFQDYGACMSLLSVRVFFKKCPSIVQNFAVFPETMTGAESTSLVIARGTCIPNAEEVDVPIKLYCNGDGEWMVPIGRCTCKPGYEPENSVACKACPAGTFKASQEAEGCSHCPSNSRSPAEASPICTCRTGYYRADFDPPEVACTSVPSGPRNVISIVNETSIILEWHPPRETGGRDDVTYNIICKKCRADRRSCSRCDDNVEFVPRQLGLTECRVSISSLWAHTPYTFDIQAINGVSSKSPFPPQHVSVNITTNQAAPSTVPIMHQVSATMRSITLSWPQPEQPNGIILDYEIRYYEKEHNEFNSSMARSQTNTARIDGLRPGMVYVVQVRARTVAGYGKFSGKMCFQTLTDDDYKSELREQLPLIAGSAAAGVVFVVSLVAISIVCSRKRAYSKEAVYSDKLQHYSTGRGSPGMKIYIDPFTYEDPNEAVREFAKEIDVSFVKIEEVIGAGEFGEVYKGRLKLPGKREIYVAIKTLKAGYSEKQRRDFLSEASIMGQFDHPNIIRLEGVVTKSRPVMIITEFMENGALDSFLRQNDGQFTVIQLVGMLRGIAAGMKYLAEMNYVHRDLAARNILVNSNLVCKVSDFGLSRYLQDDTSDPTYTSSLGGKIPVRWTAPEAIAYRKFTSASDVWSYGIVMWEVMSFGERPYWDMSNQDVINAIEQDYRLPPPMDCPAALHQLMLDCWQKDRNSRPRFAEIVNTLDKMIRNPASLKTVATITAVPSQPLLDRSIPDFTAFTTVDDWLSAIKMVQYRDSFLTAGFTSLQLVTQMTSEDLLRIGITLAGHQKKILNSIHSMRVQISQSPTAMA
Procedure, shortened: as §1

TEC = biological target: T4, TEC (Homo sapiens, UniProt P42680)
T4 construct: purchased Reaction Biology Corp
T4 sequence (P42680 1-631): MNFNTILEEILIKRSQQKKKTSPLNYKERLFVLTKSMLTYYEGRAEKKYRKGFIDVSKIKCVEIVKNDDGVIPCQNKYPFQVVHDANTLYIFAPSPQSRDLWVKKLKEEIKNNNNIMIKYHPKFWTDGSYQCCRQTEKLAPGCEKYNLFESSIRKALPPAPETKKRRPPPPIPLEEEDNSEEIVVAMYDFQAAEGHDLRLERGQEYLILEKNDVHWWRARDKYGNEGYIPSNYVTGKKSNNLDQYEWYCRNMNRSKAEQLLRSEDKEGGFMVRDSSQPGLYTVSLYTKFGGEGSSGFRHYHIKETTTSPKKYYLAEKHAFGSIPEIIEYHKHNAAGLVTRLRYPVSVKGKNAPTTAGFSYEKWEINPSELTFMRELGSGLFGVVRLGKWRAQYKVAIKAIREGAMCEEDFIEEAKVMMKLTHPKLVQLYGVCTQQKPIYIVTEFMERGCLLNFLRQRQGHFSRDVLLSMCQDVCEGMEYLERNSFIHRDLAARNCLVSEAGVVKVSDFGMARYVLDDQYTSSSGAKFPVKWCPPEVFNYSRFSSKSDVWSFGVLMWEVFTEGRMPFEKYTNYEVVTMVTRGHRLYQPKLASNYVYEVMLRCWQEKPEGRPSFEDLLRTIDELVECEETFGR
Procedure, shortened: as §1

PKAcb = biological target: T5, PKAcb (Homo sapiens, UniProt P22694)
T5 construct: purchased Reaction Biology Corp
Procedure, shortened: as §1

[1] = read-out: % Enzyme Activity (relative to DMSO controls) AVG
[2] = read-out: % Enzyme Activity (relative to DMSO controls) Data 1
[3] = read-out: % Enzyme Activity (relative to DMSO controls) Data 2

T2 sequence (P08581 25-1390): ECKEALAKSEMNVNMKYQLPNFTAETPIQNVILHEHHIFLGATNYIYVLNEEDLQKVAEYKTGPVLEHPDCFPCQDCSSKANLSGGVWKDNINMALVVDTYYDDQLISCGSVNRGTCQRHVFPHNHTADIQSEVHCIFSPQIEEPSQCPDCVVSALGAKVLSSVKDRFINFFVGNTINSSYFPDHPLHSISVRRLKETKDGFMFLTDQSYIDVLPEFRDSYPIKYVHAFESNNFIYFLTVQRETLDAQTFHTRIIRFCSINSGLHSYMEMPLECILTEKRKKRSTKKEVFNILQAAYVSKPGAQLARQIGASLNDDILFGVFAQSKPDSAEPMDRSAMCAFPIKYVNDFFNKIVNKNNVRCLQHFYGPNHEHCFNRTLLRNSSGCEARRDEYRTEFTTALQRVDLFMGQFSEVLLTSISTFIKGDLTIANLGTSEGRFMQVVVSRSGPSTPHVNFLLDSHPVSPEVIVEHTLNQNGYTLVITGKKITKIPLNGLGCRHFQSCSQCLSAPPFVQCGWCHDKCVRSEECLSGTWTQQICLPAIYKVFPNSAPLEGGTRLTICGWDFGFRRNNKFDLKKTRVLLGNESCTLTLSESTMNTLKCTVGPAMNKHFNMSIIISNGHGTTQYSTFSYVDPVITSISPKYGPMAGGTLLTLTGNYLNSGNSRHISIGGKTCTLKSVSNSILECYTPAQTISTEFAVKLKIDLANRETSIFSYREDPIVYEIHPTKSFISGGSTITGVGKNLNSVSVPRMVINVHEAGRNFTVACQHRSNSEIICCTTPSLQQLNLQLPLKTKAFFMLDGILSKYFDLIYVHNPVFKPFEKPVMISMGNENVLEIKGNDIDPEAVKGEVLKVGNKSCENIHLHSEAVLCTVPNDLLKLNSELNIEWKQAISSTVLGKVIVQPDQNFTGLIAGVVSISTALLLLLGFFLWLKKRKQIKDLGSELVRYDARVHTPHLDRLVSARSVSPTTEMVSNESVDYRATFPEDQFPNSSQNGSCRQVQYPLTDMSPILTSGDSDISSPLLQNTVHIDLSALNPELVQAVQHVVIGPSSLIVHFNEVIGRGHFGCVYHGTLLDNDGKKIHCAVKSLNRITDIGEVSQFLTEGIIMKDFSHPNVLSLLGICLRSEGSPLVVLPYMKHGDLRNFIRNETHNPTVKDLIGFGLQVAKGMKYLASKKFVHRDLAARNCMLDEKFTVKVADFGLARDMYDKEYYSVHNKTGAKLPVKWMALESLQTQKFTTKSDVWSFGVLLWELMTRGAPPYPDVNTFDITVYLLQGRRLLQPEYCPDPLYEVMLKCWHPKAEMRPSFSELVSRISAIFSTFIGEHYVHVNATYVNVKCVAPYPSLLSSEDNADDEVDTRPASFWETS
T1 sequence (P49137 whole entry): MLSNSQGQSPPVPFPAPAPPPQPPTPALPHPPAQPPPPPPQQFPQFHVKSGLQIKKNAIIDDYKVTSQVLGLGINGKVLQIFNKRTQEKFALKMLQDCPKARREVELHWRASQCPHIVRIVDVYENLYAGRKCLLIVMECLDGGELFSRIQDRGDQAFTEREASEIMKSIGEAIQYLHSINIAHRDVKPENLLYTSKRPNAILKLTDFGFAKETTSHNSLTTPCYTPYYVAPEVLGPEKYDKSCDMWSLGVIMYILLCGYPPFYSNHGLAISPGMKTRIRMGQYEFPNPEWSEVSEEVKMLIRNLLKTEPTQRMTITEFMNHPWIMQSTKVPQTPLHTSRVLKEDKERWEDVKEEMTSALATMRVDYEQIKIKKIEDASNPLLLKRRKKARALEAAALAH

## CC(C)(C)C(=O)N1N=CC[C@H]1c1ccccc1 [GSK′963]
MAPKAPK2; [1]
  remaining activity at 10 µM: 112%
MAPKAPK2; [2]
  remaining activity at 10 µM: 115%
MAPKAPK2; [3]
  remaining activity at 10 µM: 109%
c-MET; [1]
  remaining activity at 10 µM: 94.5%
c-MET; [2]
  remaining activity at 10 µM: 90.7%
c-MET; [3]
  remaining activity at 10 µM: 98.3%
EPHB1; [1]
  remaining activity at 10 µM: 99.4%
EPHB1; [2]
  remaining activity at 10 µM: 98.8%
EPHB1; [3]
  remaining activity at 10 µM: 100%
TEC; [1]
  remaining activity at 10 µM: 104%
TEC; [2]
  remaining activity at 10 µM: 98.7%
TEC; [3]
  remaining activity at 10 µM: 109%
PKAcb; [1]
  remaining activity at 10 µM: 111%
PKAcb; [2]
  remaining activity at 10 µM: 110%
PKAcb; [3]
  remaining activity at 10 µM: 113%
